One test concerns the target T1, recombinant MOA (rMOA) (Marasmius oreades, UniProt Q8X123).
T1 sequence (Q8X123 1-293): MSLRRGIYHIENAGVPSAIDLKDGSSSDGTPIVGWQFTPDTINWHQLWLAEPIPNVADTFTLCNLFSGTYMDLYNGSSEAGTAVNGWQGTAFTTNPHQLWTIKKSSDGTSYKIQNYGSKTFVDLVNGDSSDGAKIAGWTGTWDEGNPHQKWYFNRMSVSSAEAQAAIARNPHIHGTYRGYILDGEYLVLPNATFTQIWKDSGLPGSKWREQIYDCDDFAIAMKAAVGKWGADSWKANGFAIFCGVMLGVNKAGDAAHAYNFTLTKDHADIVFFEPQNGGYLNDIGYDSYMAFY
Briefly: Isothermal titration calorimetry, recombinant MOA (rMOA). Format: binding. Conditions: read-out: Ka, rMOA (converted). As to the method: (§1) As this volume underfills the titration cell, variable volume calculations were applied, using the Bindworks software installed in the instrument. […] Finally, the trisaccharide L-Fucα1,2Ga1β1,4G1c (fucosyllactose), related to the blood group H trisaccbaride, was assayed. […] While not to be limited to any particular mechanism, it is believed that this may be the reason that MOA recognizes and agglutinates human O erythrocytes to a limited extent, and gives a weak precipitin curve with blood group H substance.
Expression and characterization of recombinant MOA: A full-length PCR product incorporating NdeI and EcoRI into its forward and reverse primers, respectively, was cloned into PCR Blunt II using topoisomerase (Invitrogen) and subsequently shuttled into an IPTG inducible pT7 expression vector (MOApT7LO). Recombinant MOA was expressed in a Nova Blue DE3 strain of E. coli. Expressing bacteria were collected by centrifugation and resuspended in a lysis buffer consisting of 50 mM NaH2PO4, 300 mM NaCl, 10 mM imidizole, 10mM 2-mercaptoethanol, 1 mM phenylmethylsulfonyl fluoride, 1% NP-40, and a protease inhibitor cocktail. The extract was twice run through a french press. The insoluble fraction was removed by centrifugation (10,000×g, 15 min).
(§2) Purification of recombinant MOA and native intact MOA-Recombinant MOA was purified from the soluble fraction by absorption on a column of melibiose-Sepharose and elution by lactose. Further purification was carried out on an affinity column of Synsorb B. Except for the diaminopropane elution, all affinity purifications were carried out in PBS, pH 7.2, containing 1.25 mM EDTA. After purification, lectin solutions were dialyzed against distilled water and lyophilized. […] Intact native MOA was prepared with a purification procedure (Example 2) that utilized a protease inhibitor cocktail (product P8215, Sigma, St. Louis, Mo.) which was added at the level of 0.1 ml/100 ml extract buffer (instead of phenylmethylsulfonyl fluoride), all buffers lacked Ca^++ and contained 1.25 mM EDTA, and the initial extraction and ammonium sulfate fractionations were carried out under an atmosphere of argon.
(§3) Binding constants of several relevant oligosaccharides to recombinant and intact native MOA were determined calorimetrically.

Test [1] addresses T2, Marasmius oreades lectin (MOA, cMOA) (Marasmius oreades, UniProt Q8X123).
T2 sequence (Q8X123 1-293): T1 sequence (Q8X123 1-293)
The test is described as follows: Isothermal titration calorimetry, MOA of Example 1 (proteolyzed, clipped form, cMOA). The class given is binding. To be noted: for Ka, cMOA: proteolyzed (clipped) native lectin, Table 6. (In ITC the heat of successive injections is recorded.)

Another test has as its target T3, intact native MOA (nMOA) (Marasmius oreades, UniProt Q8X123).
T3 sequence (Q8X123 1-293): T1 sequence (Q8X123 1-293)
The test is described as follows: Isothermal titration calorimetry, intact native MOA (nMOA). The class given is binding. To be noted: read-out: Ka, nMOA (converted). The protocol:
as §1, §2, §3

In test [2] the test system is MOA. The test is described as follows: Sugar ligand binding to MOA (hemagglutination inhibition, hapten inhibition of precipitation, calorimetry). To be noted: binding to MOA in solution. On the set-up: species or system Marasmius oreades. As to the method:
All three methods gave approximately the same results, with the calorimetric data being the most precise.
Being a blood type B agglutinin, MOA was assayed primarily against D-galactosyl-terminated sugars and oligosaccharides. […] Methyl α-galactopyranoside was similarly very poor. […] While not limited to any particular mechanism, and with the understanding that knowledge of the underlying mechanism is not required for the practice of the invention, it is believed that recognition of the L-fucosyl moiety is the reason for limited agglutination of human O erythrocytes and a weak precipitin curve with blood group H substance.

The next test concerns immobilized MOA. Briefly: Binding to MOA-Sepharose 4B affinity column. On the set-up: species or system Marasmius oreades. Conditions: washed with PBS, eluted with 20 mM diaminopropane. An excerpt:
Further insight into the carbohydrate specificity of MOA was obtained by using immobilized MOA. Immobilization of MOA on a variety of supports is contemplated. In one embodiment, MOA is immobilized on a matrix that can be used in an affinity column (see below). In some embodiments, the matrix comprises Sepharose 4B beads. In some Embodiments, the MOA-conjugated Sepharose 4B beads are packed in a column for binding and affinity isolation and purification studies. Briefly, the MOA-Sepharose column is loaded with glycan, glycoconjugate or serum sample to be tested, then washed with an appropriate buffer (including but not limited to PBS). Bound components are eluted with a suitable elution buffer (including but not limited to 1,3-diaminopropane in NaCl), and the collected fractions are analyzed for the presence of protein or glycan (see Example 6 below). The fractions containing the bound components (eluted as described herein) can be pooled and concentrated.
MOA was immobilized on cyanogen bromide-activated Sepharose 4B as follows. 1.5 g of cyanogen bromide-activated Sepharose 4B was allowed to swell in 100 ml of 1 mM HCl solution for 30 min. The supernatant was removed and the swollen beads (6 ml) were filtered on a sintered funnel, washed several times with 100 ml of 1 mM HCl and finally with 20 ml of 0.1 M sodium bicarbonate buffer, pH 8.3, containing 0.5 M sodium chloride. The beads were quickly transferred to a plastic bottle containing 16.2 mg MOA in the same buffer (10 ml) containing 0.2 M lactose. The plastic bottle was shaken at room temperature for 6 hr and at 4° C. overnight. The beads were filtered on a sintered glass funnel, washed with the coupling buffer, and then shaken in 1 M ethanolamine (12 ml) at room temperature for 2.5 hr to cap all of the unreacted iminocarbonate groups. The beads were filtered, washed alternately with the coupling buffer then sodium acetate buffer (0.1 M, pH 4.0 containing 0.5 M NaCl) four times. A column (1×7 cm) packed with the beads was finally washed with PBS containing 0.04% sodium azide. The beads contained 2.3 mg MOA per ml Sepharose 4B, based on MOA remaining in solution.
In order to assess the binding of various glycans, glycoconjugates and serum samples to MOA-Sepharose, the following general procedure was used. The MOA-Sepharose column was loaded with glycan, glycoconjugate or serum sample (0.6-5 ml) and washed with PBS (15 ml). The bound components were eluted with 20 mM 1,3-diaminopropane in 0.15 M NaCl (15 ml). The fractions collected (1 ml) were neutralized with 1 M phosphoric acid (approximately 16 μl), and analyzed by either absorbance at 280 nm for protein, or by phenol-sulfuric acid assay, as described by Dubois et al. [Anal. Chem. 28: 350 (1956)] for the glycan. The column was finally washed thoroughly with PBS. The fractions containing the bound components were pooled and concentrated by Amicon ultrafiltration (Millipore Corp., Bedford, Mass.) using a membrane (YM10) of 10,000 molecular weight cut-off.

The test system of test [3] is MOA. Briefly: Quantitative precipitation assay with MOA. Format: binding, Marasmius oreades. To be noted: 20 μg MOA, PBS pH 7.2, 48 hr at 4° C. As to the method: In other embodiments, blood group specificity of MOA is determined by quantitative precipitation assays. Quantitative microprecipitation assays with soluble cyst blood group substances and inhibition of precipitation by sugar haptens were performed as described in Mo et al., [J. Biol. Chem. 275:10623 (2000)].
For quantitative precipitation assays, 20 μg of MOA and increasing amounts of glycoprotein or polysaccharide were used in a total volume of 120 to 200 μL, all in PBS/0.15 M NaCl. Quantitative carbohydrate hapten inhibition assays were conducted by adding increasing amounts of haptens to a mixture of MOA (20 μg) and type B blood group substance (5.0 μg). The reactions were incubated at 37° C. for an hour and then at 4° C. for 48 hours followed by centrifugation of the precipitates, washing, and determination of protein by the Lowry method [Lowry, O. H. et al., J. Biol. Chem. 193, 265-275 (1951)].
Varying amounts of blood group substances from 0 to 200 μg were incubated with 20 μg of MOA in a total volume of 150 μl of PBS (pH 7.2). After 48 hr at 4° C., the amounts of protein precipitated were quantified as described above. Solid squares indicate group A substance, solid circles indicate group B substance, and solid triangles indicate group O substance.
Various amounts of glycoconjugates, ranging from 0 to 100 μg were incubated with 20 μg of lectin in a total volume of 150 μl of PBS (pH 7.2). After 48 hr at 4° C., the amounts of protein precipitated were quantified, as described above. Solid circles indicate MOA interaction with laminin, solid crosses indicate MOA interaction with bovine thyroglobulin, solid squares indicate MOA interaction with C. alata galactomannan, solid triangles indicate MOA interaction with pigeon ovalbumin, open circles indicate MOA interaction with Ga1NAcα1,3Ga1β-polyacrylamide, open squares indicate GS I-B4 interaction with pigeon ovalbumin and closed inverted triangles indicate GS I-B4 interaction with Ga1NAcα1,3Ga1β-polyacrylamide.

Setting [4] is: isothermal titration calorimetry.
The mark [5] stands for this setting: isothermal titration calorimetry, Table 3.

For `C[C@@H]1O[C@@H](O[C@H]2C(O)O[C@H](CO)[C@H](O)[C@@H]2O[C@H]2O[C@H](CO)[C@H](O)[C@H](O)[C@H]2O)[C@@H](O)[C@H](O)[C@@H]1O` (some centres unmarked) [B trisaccharide, Galα1,3[Fucα1,2]Gal], the Kd on recombinant MOA (rMOA) is 21.7 µM. Moreover, the “enhancement of affinity to MOA relative to Galα1,3Gal” value in test [1] (addition of an L-fucosyl group) is listed as 4 fold. For the same molecule, in test [1] (setting [4]), the Ka stood at 36000 M⁻¹, the Kd is 36 µM, the TΔS was determined as 14.6 kcal/mol and the “−ΔG” value worked out at 6.01 kcal/mol. For the same molecule, in test [1] (setting [4]), the “−ΔH” value came to 20.6 kcal/mol. Besides, the Ka in test [1] (setting [5]) is reported as 27.8 10^3 M^−1. Besides, the “Ka, cMOA” value in test [1] is reported as 27.8 10^3 M^−1.

On to `OC[C@H]1O[C@H](O[C@H]2[C@@H](O)[C@@H](CO)OC(O)[C@@H]2O)[C@H](O)[C@@H](O)[C@H]1O` (some centres unmarked) [Galα1,3Gal], for which the Kd on intact native MOA (nMOA) is 36.6 µM. Further, the “ligand binding” value in the test with MOA [2] is listed as “excellent ligand”. Further, the Kd at recombinant MOA (rMOA) is 37.5 µM. In test [1], the “affinity constant relative to that for Meα-Gal” value is given as 44 fold and the “Ka, cMOA” value is reported as 5.48 10^3 M^−1. For the same molecule, in test [1] (setting [4]), the Ka worked out at 6000 M⁻¹, the Kd is 182 µM, the TΔS was 15.0 kcal/mol and the “−ΔG” value was determined as 5.05 kcal/mol. In addition, the “−ΔH” value in test [1] (setting [4]) was found to be 20.1 kcal/mol. Moreover, in test [1] (setting [5]), the Ka is listed as 5.48 10^3 M^−1 and the “ligand binding” value is “excellent ligand”.

Turning to `OC[C@H]1O[C@H](O[C@H]2[C@@H](O)[C@@H](CO)O[C@@H](O[C@H]3[C@H](O)[C@@H](O)C(O)O[C@@H]3CO)[C@@H]2O)[C@H](O)[C@@H](O)[C@H]1O` (some centres unmarked) [Galα1,3Galβ1,4Glc], the Kd at intact native MOA (nMOA) is 59.9 µM; at recombinant MOA (rMOA), 75.8 µM.

Take `CC(=O)N[C@H]1C(O)O[C@H](CO)[C@@H](O[C@@H]2O[C@H](CO)[C@H](O)[C@H](O)[C@H]2O)[C@@H]1O` (some centres unmarked) [LacNAc, N-acetyllactosamine]: the Kd on intact native MOA (nMOA) is 2630 µM. Besides, the “ligand binding” value in the test on MOA [2] was “very poor ligands”. Further, the Kd on recombinant MOA (rMOA) was 1490 µM. For the same molecule, in test [1] (setting [4]), the Kd was 3450 µM, the TΔS came out at 10.9 kcal/mol, the “−ΔG” value was determined as 3.33 kcal/mol and the “−ΔH” value worked out at 14.22 kcal/mol. For the same molecule, the Ka in test [1] (setting [5]) is 0.290 10^3 M^−1. Moreover, the “Ka, cMOA” value in test [1] is on record as 0.29 10^3 M^−1.

Regarding `CC(=O)N[C@H]1C(O)O[C@H](CO)[C@@H](O[C@@H]2O[C@H](CO)[C@H](O)[C@H](O[C@H]3O[C@H](CO)[C@H](O)[C@H](O)[C@H]3O)[C@H]2O)[C@@H]1O` (some centres unmarked) [Linear B2 trisacc., Galα1,3Galβ1,4GlcNAc], on intact native MOA (nMOA), the Kd was 25.4 µM. Further, at recombinant MOA (rMOA), the Kd is 33 µM. In addition, the “increase of binding relative to Galα1,3Gal” value in test [1] (addition of a GlcNAc group to the reducing end) was “approximately 50%”. Also, in test [1] (setting [4]), the Ka turned out to be 9700 M⁻¹, the Kd was found to be 103 µM, the TΔS amounted to 15.2 kcal/mol and the “−ΔG” value is 5.39 kcal/mol. The “−ΔH” value in test [1] (setting [4]) was 20.6 kcal/mol. Also, the Ka in test [1] (setting [5]) was 9.753 10^3 M^−1. In addition, in test [1], the “Ka, cMOA” value is 9.75 10^3 M^−1.

Consider Galactomannan, for which the “binding to MOA-Sepharose column” value in the test with immobilized MOA is listed as “failed to bind”. Besides, the “precipitation with MOA” value in the test with MOA [3] is listed as “did not precipitate”.

Regarding “asialofetuin: asialofetuin, with terminal Galβ1,4GlcNAc residues”, the “binding to MOA-Sepharose column” value in the test with immobilized MOA is “passed through the column”.

In the case of “bovine thyroglobulin: bovine thyroglobulin, with Galα1,3Galβ1,4GlcNAc end groups”, the “binding to MOA-Sepharose column” value with immobilized MOA was “bound tightly”. Also, the “precipitation with MOA” value in the test on MOA [3] is reported as “reacted strongly”.

“degalactosylated bovine thyroglobulin: α-galactosidase-digested bovine thyroglobulin”: the “binding to MOA-Sepharose column” value in the test on immobilized MOA is recorded as “passed through the column”.

As for “laminin: Laminin purified from the EHS sarcoma, with Galα1,3Galβ1,4GlcNAc end groups”, the “binding to MOA-Sepharose column” value in the test on immobilized MOA is listed as “bound tightly”. Further, the “precipitation with MOA” value in the test with MOA [3] was “reacted strongly”.
